Measurements: patent US7217710B2, “Substituted pyrazolopyrimidines” (SmithKline Beecham Corporation, priority 2001, dated 2007)

What was measured:
GST-VEGFR2 = molecular target: T1, GST-VEGFR2 (Homo sapiens, UniProt P35968); assay: VEGF-R2 Enzyme Assay (VEGF-E2), LANCE method; assay type: biochemical; conditions: for IC50: read-out: VEGFR2 PIC50 VEGFR-E2 assay
T1 construct: GST-VEGFR2, baculovirus expressed recombinant constructs of the intracellular domains; made in house

[1] = molecular target: T2, catalytic domain of human VEGFR3 (Homo sapiens, UniProt P35916, H890Q); assay: VEGFR-3 Homogenous Time-Resolved Fluorescence Assay (VEGFR-3-HTRF); assay type: biochemical; conditions: for IC50: read-out: VEGFR3 PIC50 VEGFR-3-HTRF assay
T2 construct: made in house; host or cells: Sf9 insect cells (baculovirus, pFastBac1)
T2 sequence (P35916 with tags, fused parts or gaps isoform P35916-1 H890Q): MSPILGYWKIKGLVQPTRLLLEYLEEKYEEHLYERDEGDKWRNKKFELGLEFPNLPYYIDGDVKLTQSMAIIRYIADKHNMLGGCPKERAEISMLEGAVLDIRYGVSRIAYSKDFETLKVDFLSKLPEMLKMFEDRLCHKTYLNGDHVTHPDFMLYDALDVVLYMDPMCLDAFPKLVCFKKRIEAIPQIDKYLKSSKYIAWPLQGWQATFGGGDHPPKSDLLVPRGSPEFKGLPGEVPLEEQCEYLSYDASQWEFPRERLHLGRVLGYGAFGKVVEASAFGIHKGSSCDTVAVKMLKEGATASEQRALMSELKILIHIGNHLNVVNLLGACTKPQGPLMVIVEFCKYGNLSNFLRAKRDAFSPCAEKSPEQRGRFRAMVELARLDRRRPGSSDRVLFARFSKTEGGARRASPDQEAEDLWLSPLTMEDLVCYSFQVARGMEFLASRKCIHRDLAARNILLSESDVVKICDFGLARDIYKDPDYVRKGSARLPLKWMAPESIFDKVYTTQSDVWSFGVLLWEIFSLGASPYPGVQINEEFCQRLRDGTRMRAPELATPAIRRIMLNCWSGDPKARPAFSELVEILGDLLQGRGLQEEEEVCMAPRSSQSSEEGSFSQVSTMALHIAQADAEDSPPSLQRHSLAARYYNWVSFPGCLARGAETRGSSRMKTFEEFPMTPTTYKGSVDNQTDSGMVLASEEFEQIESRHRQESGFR
Outline: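 GST-tagged human VEGFR3 catalytic domain (aa 819–1298, Sf9-expressed), pre-autophosphorylated 45 min with ATP/Mg, then 1 nM enzyme with 0.36 μM biotinylated peptide, 75 μM ATP, 10 mM MgCl2, pH 7.2, 1.5 h at room temperature. EDTA stop; HTRF detection; IC50 from hyperbolic fit of % control.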

[2] = molecular target: T3, TIE2 intracellular domain/c-fms extracellular domain (TIE2/c-fms) chimeric protein (Homo sapiens, UniProt Q02763); assay: TIE-2 Autophosphorylation Assay (TIE2-C); assay type: cell-based; conditions: TIE2/c-fms expressing mouse 3T3 cells
T3 construct: fused on or other part: c-fms (CSF1R) extracellular domain in place of TIE2's own ectodomain; it serves as the capture handle for the anti-c-fms ELISA; P07333 (Macrophage colony-stimulating factor 1 receptor)
T3 sequence (Q02763 whole entry, change not shown, the tested form may be a part): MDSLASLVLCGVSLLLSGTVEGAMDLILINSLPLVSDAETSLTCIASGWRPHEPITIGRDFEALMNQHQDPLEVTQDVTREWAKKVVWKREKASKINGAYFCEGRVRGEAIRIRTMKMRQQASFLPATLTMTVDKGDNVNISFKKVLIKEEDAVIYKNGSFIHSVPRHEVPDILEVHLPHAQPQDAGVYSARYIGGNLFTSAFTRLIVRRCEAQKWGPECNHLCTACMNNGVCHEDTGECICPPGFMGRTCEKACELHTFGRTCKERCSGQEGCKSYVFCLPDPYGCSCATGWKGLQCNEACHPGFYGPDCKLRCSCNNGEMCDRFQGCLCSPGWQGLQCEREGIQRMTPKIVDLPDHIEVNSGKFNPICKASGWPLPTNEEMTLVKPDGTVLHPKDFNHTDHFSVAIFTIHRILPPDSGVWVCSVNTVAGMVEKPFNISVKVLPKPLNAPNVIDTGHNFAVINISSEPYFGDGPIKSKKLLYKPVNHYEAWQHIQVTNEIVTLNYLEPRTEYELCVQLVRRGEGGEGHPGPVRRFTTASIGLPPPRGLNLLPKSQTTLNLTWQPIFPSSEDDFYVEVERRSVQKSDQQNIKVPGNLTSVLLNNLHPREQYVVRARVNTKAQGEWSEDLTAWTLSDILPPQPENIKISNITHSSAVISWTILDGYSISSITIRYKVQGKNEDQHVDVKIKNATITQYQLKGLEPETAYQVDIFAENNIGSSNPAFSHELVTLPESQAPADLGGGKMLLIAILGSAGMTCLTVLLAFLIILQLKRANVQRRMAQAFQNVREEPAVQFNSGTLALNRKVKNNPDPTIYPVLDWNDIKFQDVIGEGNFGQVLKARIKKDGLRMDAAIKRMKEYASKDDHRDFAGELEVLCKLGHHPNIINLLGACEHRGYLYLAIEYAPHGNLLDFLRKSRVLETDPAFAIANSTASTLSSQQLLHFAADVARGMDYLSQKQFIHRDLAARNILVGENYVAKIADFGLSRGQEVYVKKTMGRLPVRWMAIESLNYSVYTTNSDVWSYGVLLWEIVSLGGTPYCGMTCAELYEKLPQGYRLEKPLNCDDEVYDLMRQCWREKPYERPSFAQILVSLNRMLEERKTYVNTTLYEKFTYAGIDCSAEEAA
Description: TIE-2 Autophosphorylation Assay (TIE2-C)
The TIE-2 autophosphorylation assay uses an ELISA method and a TIE2 intracellular domain/c-fms extracellular domain (TIE2/c-fms) chimeric protein expressing mouse 3T3 cell line. This assay measures the autophosphorylation level of TIE2 protein expressed in cells. The cells are cultured in 96 well plates and grown in high glucose DMEM containing 10% serum at 37° C. in a humidified 10% CO2, 90% air incubator. On the day of the assay, the serum containing medium is removed from the cells and replaced with serum free medium for one hour. The test compound (diluted from a 10 mM stock in DMSO, final DMSO concentration is 0.1%) is incubated with TIE2/c-fms expressing cells for 30 minutes in serum free DMEM. Intrinsic cellular dephosphorylation of the receptor is blocked by the addition of the tyrosine phosphatase inhibitor, sodium orthovanadate, from a 100 mM aqueous stock to a final concentration of 1 mM. The culture media is removed by aspiration and the cells incubated for 30 to 60 mins on ice with lysis buffer containing 137 mM NaCl, 2 mM EDTA, 10% glycerol, 1 mM sodium ortho vanadate, 1×tyrosine phosphatase inhibitor cocktail (Sigma) and complete protease inhibitor cocktail (Roche) in 20 mM Tris-HCl (pH8.0). The cell extracts are transferred into Rat anti-c-fms antibody (Zymed-clone 12-2d6) ([…]) coated 96 well plates and incubated for 12 hrs at 4 degrees. The extracts are removed by aspiration and the plate, washed in a buffer comprising PBS, 0.05% Tween-20, 0.05% NP-40 and 5% SuperBlock (Pierce) followed by incubation with an HRP (horseradish peroxidase) conjugated anti-phosphotyrosine antibody, (Upstate Biotech) The plates are again washed with the aforementioned wash buffer and the colorimetric HRP substrate, TMB is added. The reaction progresses for 90 seconds and is stopped with the addition of 2M H2SO4. The optical density at 450 nm derived from HRP catalyzed TMB is measured with a plate reader capable of reading at the appropriate wavelength (e.g. SpectroMax from Molecular Dynamics). The percent inhibition of activity is calculated relative to non-vanadate treated control wells. The concentration of test compound that inhibits 50% of activity (IC50) is interpolated using nonlinear regression (Levernberg-Marquardt) and the equation, y=Vmax (1−x/(K+x))+Y2, where “K” is equal to the IC50.

[3] = molecular target: T4, GST-TIE2 (intracellular domains of human TIE2) (Homo sapiens, UniProt Q02763); assay: TIE-2 Enzyme Assay (TIE2-E2), LANCE method; assay type: biochemical; conditions: for IC50: read-out: TIE2 PIC50 TIE2-E2 assay
T4 construct: made in house
T4 sequence (Q02763 762-1104): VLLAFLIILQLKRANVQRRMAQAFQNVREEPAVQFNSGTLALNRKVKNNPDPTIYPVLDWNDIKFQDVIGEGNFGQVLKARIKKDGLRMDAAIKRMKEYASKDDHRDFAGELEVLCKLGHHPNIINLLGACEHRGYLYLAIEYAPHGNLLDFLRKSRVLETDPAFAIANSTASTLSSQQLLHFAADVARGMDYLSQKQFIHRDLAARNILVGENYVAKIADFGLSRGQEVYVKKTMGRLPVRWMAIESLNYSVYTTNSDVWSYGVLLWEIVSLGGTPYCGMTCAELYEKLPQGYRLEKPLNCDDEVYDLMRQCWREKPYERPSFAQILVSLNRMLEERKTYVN
Outline: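 GST-tagged human TIE2 intracellular domain (aa 762–1104), preactivated 2 h with 80 μM ATP, then 5 nM enzyme run 2 h at room temperature with 1 μM biotinylated D1–15 peptide, 80 μM ATP, HEPES pH 7.4, 2.4% DMSO. Phosphotyrosine detected by LANCE (Eu anti-pTyr/streptavidin-APC) after EDTA stop; IC50 by nonlinear regression, reported as pIC50.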

Recombinant GST-Tie2 = Recombinant GST-Tie2 (Homo sapiens, UniProt Q02763); assay: Tie2 Fluorescence Polarization Kinase Activity Assay (TIE2-FP); assay type: biochemical
Sequence of Recombinant GST-Tie2 (Q02763 23-1124): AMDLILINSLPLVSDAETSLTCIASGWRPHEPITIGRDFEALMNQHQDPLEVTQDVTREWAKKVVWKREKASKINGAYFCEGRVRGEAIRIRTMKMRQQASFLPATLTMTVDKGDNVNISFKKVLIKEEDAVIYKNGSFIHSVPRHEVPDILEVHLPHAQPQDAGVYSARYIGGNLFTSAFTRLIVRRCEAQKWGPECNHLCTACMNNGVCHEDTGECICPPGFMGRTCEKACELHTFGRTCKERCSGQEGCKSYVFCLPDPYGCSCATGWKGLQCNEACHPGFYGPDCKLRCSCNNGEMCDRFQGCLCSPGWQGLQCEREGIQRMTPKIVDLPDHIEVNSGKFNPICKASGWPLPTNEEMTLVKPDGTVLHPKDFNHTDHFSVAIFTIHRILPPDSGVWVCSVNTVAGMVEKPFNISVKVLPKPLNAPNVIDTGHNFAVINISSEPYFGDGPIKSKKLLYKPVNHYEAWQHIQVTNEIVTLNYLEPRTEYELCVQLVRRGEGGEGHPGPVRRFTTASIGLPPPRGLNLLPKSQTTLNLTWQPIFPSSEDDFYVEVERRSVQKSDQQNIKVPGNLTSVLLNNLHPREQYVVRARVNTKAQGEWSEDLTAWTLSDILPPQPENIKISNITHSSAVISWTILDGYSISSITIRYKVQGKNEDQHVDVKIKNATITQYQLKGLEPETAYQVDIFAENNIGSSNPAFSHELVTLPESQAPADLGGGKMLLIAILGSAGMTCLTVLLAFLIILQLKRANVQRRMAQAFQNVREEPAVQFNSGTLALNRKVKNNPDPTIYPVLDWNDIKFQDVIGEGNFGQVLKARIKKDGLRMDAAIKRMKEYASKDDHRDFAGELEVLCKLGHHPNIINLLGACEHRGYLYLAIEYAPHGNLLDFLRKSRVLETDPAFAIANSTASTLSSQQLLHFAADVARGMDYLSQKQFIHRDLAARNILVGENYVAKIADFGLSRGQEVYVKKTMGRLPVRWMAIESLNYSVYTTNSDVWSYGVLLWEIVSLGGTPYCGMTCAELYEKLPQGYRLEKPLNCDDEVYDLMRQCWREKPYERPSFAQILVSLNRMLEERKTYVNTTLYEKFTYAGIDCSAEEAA
Description: Tie2 Fluorescence Polarization Kinase Activity Assay: (TIE2-FP)
Activation of Recombinant Tie2 Activation:
Recombinant GST-Tie2 is activated by incubating the enzyme in 20 mM Tris-HCl, pH 7.5, 12 mM MgCl2, 100 mM NaCl, 20 μM sodium vanidate, 1 mM DTT and 300 μM ATP at room temperature for 2 hours. The activation mixture is then passed through a NAP-25 desalting column (Pharmacia Biotech cat. no. 17-0852-02) to remove the free ATP. The activated enzyme is stored as aliquots at −80° C. in 20 mM Tris-HCl, pH 7.5 and 100 mM NaCl.
The final assay conditions are 50 mM HEPES, pH 7.5, 5% DMSO (when screening compounds), 200 μM ATP, 5 mM MgCl2, 1 mM DTT, 50 μM sodium vanidate, 1 nM activated enzyme, and 200 μM peptide. IC50's of compounds are measured under subsaturating ATP (200 μM) and varying concentrations of activated Tie2 and peptide substrate (RFWKYEFWR-OH; MW 1873 Da, TFA salt). Panvera Anti-phosphotyrosine antibody (Cat#P2840) and PTK Green Tracer (Cat#P2842) are used to detect the phosphorylated peptide. Polarization is measured on a TECAN Polarion in 138-second cycles for 30 minutes at room temperature. IC50's are then determined from the % polarization using normal calculation methods. The IC50 values are converted to pIC50 values, i.e., −log IC50 in Molar concentration.

T1 sequence (P35968 786-1356 limits assumed): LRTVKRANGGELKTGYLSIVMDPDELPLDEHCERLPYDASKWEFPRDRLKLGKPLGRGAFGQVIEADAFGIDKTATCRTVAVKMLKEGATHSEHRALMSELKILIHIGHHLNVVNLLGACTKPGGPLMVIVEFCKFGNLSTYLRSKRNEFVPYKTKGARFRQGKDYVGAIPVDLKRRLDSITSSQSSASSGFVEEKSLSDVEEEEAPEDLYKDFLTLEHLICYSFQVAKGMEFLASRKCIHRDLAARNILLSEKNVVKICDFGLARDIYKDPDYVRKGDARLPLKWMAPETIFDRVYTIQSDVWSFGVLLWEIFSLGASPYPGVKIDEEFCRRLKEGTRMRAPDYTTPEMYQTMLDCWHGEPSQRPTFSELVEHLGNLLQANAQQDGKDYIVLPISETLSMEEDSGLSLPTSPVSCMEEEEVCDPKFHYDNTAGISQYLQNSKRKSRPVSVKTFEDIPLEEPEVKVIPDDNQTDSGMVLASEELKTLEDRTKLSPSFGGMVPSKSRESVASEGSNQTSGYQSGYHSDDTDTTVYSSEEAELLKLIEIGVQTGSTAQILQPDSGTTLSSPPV

Row | Molecule | VEGFR2 PIC50 VEGFR-E2 assay (GST-VEGFR2) | VEGFR3 PIC50 VEGFR-3-HTRF assay [1] | IC50 [2] [nM] | TIE2 PIC50 TIE2-E2 assay [3] | IC50 (Recombinant GST-Tie2) [nM] | IC50 (GST-VEGFR2) [nM] | IC50 [1] [nM] | IC50 [3] [nM]
1 | 1-(5-tert-Butyl-isoxazol-3-yl)-3-{2-fluoro-4-[1-methyl-6-(3-(imidazol-1-yl propylamino)-1H-pyrazolo[3,4-d]pyrimidin-3-yl)-phenyl]} urea [Example 139] | + (+ = PIC50 = 5.00 to less than 6.00) | + (+ = PIC50 = 5.00 to less than 6.00) | 100 to 300 | ++++ (++++ = PIC50 = greater than or equal to 7.40) | – | – | – | –
2 | Cn1nc(-c2ccc(NC(=O)Nc3cc(C(F)(F)F)ccc3F)cc2)c2cnc(NCCO)nc21 [Example 29, 1-(2-Fluoro-5-trifluoromethyl-phenyl)-3-{4-[(2-hydroxy-ethylamino)-methyl-1H-pyrazolo[3,4-d]pyrimidin-3-yl]-phenyl}-urea] | – | – | – | – | 100 to 300 | – | – | –
3 | CCN(CC)CCNc1ncnc2c1c(-c1ccc(NC(=O)Nc3cc(C(F)(F)F)ccc3F)cc1)nn2C [Example 33, 1-{4-[(2-Diethylamino-ethylamino)-methyl-1H-pyrazolo[3,4-d]pyrimidin-3-yl]-phenyl}-3-(2-fluoro-5-trifluoromethyl-phenyl)-urea] | – | – | – | – | ≥ 300 | – | – | –
4 | Cn1nc(-c2ccc(NC(=O)Nc3cc(C(C)(C)C)on3)c(F)c2)c2cnc(NCCN3CCOCC3)nc21 [Example 57, 1-(5-tert-Butyl-isoxazol-3-yl)-3-{2-fluoro-4-[1-methyl-6-(2-morpholin-4-yl-ethylamino)-1H-pyrazolo[3,4-d]pyrimidin-3-yl]-phenyl}-urea] | – | – | 100 to 300 | – | – | 1000 to 10000 | 1000 to 10000 | ≤ 39.8
5 | CN1CCN(CCCNc2ncc3c(-c4ccc(NC(=O)Nc5cc(C(F)(F)F)ccc5F)cc4)nn(C)c3n2)CC1 [Example 64] | – | – | ≥ 300 | – | – | > 10000 | > 10000 | ≤ 39.8
6 | CC(C)n1nc(-c2ccc(NC(=O)Nc3cc(C(F)(F)F)ccc3F)cc2)c2cnc(NCCN3CCOCC3)nc21 [Example 78] | + (+ = PIC50 = 5.00 to less than 6.00) | + (+ = PIC50 = 5.00 to less than 6.00) | ≥ 300 | +++ (+++ = PIC50 = 7.00 to less than 7.40) | – | – | – | –
7 | Cn1nc(-c2ccc(NC(=O)Nc3cc(C(F)(F)F)ccc3F)cc2)c2cnc(NCCCN3CCOCC3)nc21 [Example 84] | – | – | ≥ 300 | – | – | 1000 to 10000 | > 10000 | ≤ 39.8
8 | CC1CCCCN1CCCNc1ncc2c(-c3ccc(NC(=O)Nc4cc(C(F)(F)F)ccc4F)cc3)nn(C)c2n1 (stereo not shown) [Example 85] | – | – | ≥ 300 | – | – | – | > 10000 | ≤ 39.8
9 | CN1CCCC1CCNc1ncc2c(-c3ccc(NC(=O)Nc4cc(C(F)(F)F)ccc4F)cc3)nn(C)c2n1 (stereo not shown) [Example 89, 1-(2-Fluoro-5-trifluoromethyl-phenyl)-3-{4-[1-methyl-6-[2-(1-methyl-pyrrolidin-2-yl)-ethylamino]-1H-pyrazolo[3,4-d]pyrimidin-3-yl]-phenyl} urea] | – | – | ≥ 300 | – | – | – | – | ≤ 39.8
10 | Cn1nc(-c2ccc(NC(=O)Nc3cc(C(F)(F)F)ccc3F)cc2)c2cnc(NCCN3CCNC3=O)nc21 [Example 90] | – | – | ≥ 300 | – | – | 1000 to 10000 | 1000 to 10000 | 39.8 to 100
11 | Cn1nc(-c2ccc(NC(=O)Nc3cc(C(F)(F)F)ccc3F)cc2)c2cnc(NCCCCN3CCCC3)nc21 [Example 91, 1-(2-Fluoro-5-trifluoromethyl-phenyl)-3-{4-[1-methyl-6-[(4-pyrrolidin-1-yl)-butylamino]-1H-pyrazolo[3,4-d]pyrimidin-3-yl]-phenyl} urea] | – | – | 100 to 300 | – | – | 1000 to 10000 | 1000 to 10000 | ≤ 39.8
12 | Cn1nc(-c2ccc(NC(=O)Nc3cc(C(F)(F)F)ccc3F)cc2)c2cnc(NCCCO)nc21 [Example 92, 1-(2-Fluoro-5-trifluoromethyl-phenyl)-3-{4-[1-methyl-6-(3-hydroxy-propylamino)-1H-pyrazolo[3,4-d]pyrimidin-3-yl]-phenyl} urea] | – | – | < 100 | – | – | 1000 to 10000 | 1000 to 10000 | ≤ 39.8
13 | Cn1nc(-c2ccc(NC(=O)Nc3cc(C(F)(F)F)ccc3F)cc2)c2cnc(NCCCCO)nc21 [Example 93, 1-(2-Fluoro-5-trifluoromethyl-phenyl)-3-{4-[1-methyl-6-(4-hydroxy-butylamino)-1H-pyrazolo[3,4-d]pyrimidin-3-yl]-phenyl} urea] | – | – | 100 to 300 | – | – | 1000 to 10000 | 1000 to 10000 | ≤ 39.8
14 | Cn1nc(-c2ccc(NC(=O)Nc3cc(C(F)(F)F)ccc3F)cc2)c2cnc(NCCCn3ccnc3)nc21 [Example 100, 1-(2-Fluoro-5-trifluoromethyl-phenyl)-3-{4-[1-methyl-6-(3-imidazol-1-yl-propylamino)-1H-pyrazolo[3,4-d]pyrimidin-3-yl]-phenyl} urea] | – | – | ≥ 300 | – | – | 100 to 1000 | 1000 to 10000 | ≤ 39.8
15 | Cn1nc(-c2ccc(NC(=O)Nc3cc(C(C)(C)C)on3)c(F)c2)c2cnc(NCCCN3CCOCC3)nc21 [Example 134] | – | – | 100 to 300 | – | – | > 10000 | – | ≤ 39.8
16 | CC1CCCCN1CCCNc1ncc2c(-c3ccc(NC(=O)Nc4cc(C(C)(C)C)on4)c(F)c3)nn(C)c2n1 (stereo not shown) [Example 135] | – | – | ≥ 300 | – | – | – | – | ≤ 39.8
17 | CCN(CC)CCCNc1ncc2c(-c3ccc(NC(=O)Nc4cc(C(C)(C)C)on4)c(F)c3)nn(C)c2n1 [Example 136] | – | – | ≥ 300 | – | – | – | – | ≤ 39.8
18 | CN1CCCC1CCNc1ncc2c(-c3ccc(NC(=O)Nc4cc(C(C)(C)C)on4)c(F)c3)nn(C)c2n1 (stereo not shown) [Example 137] | – | – | ≥ 300 | – | – | – | – | ≤ 39.8
19 | CN1CCN(CCCNc2ncc3c(-c4ccc(NC(=O)Nc5cc(C(C)(C)C)on5)c(F)c4)nn(C)c3n2)CC1 [Example 138] | – | – | 100 to 300 | – | – | – | – | ≤ 39.8
20 | Cn1nc(-c2ccc(NC(=O)Nc3cc(C(F)(F)F)ccc3F)cc2)c2cnc(NCCc3c[nH]cn3)nc21 [Example 145] | – | – | ≥ 300 | – | – | – | 1000 to 10000 | 39.8 to 100
21 | Cn1cncc1CCNc1ncc2c(-c3ccc(NC(=O)Nc4cc(C(F)(F)F)ccc4F)cc3)nn(C)c2n1 [Example 146, 1-(2-Fluoro-5-trifluoromethyl-phenyl)-3-{4-[(1-methyl-6-(2-[3-methyl-3H-imidazol-4-yl)-ethylamino)-1H-pyrazolo[3,4-d]pyrimidin-3-yl]-phenyl]} urea] | – | – | ≥ 300 | – | – | – | 100 to 1000 | 39.8 to 100
